# In US8912195B2, “Alkyl amides as HIV attachment inhibitors” (priority 2010, dated 2014):
# Read-outs that look alike come from different tables or passages of the source.
# System: single-round infectious reporter virus with HIV-1 LAI envelope
# Assay: Single-round infectious HIV-1 LAI luciferase reporter virus infection of MT2 cells
# Assay type: cell-based
# Conditions: Human immunodeficiency virus 1, MT2, 72 h
# Text: • Virus production—Human embryonic Kidney cell line, 293T (HEK 293T), was propagated in Dulbecco's Modified Eagle Medium (Invitrogen, Carlsbad, Calif.) containing 10% fetal Bovine serum (FBS, Sigma, St. Louis, Mo.). The human T-cell leukemia cell MT2 (AIDS Research and Reference Reagent Program, Cat. 237) was propagated in RPMI 1640 (Invitrogen, Carlsbad, Calif.) containing 10% fetal bovine serum (FBS, Hyclone, Logan, Utah) • Virus infection—Single-round infectious reporter virus was produced by co-transfecting HEK 293T cells with plasmide expressing the HIV-1 LAI envelope along with a plasmid containing an HIV-1 LAI proviral cDNA with the envelope gene replaced by a firefly luciferase reporter gene (Chen et al, Ref 41). Transfections were performed using lipofectAMINE PLUS reagent as described by the manufacturer (Invitrogen, Carlsbad, Calif.).
# • 1. MT2 cells were plated in black, 384 well plates at a cell density of 5×10^3 cells per well in 25 μl RPMI 1640 containing 10% FBS. • 2. Compound (diluted in dimethylsulfoxide and growth medium) was added to cells at 12.5 μl/well, so that the final assay concentration would be ≦50 nM. • 3. 12.5 μl of single-round infectious reporter virus in Dulbecco's Modified Eagle Medium was added to the plated cells and compound at an approximate multiplicity of infection (MOI) of 0.01, resulting in a final volume of 50 μl per well. • 4. Virus-infected cells were incubated at 37 degrees Celsius, in a CO2 incubator, and harvested 72 h after infection. • 5. Viral infection was monitored by measuring luciferase expression in the infected cells using a luciferase reporter gene assay kit (Steady-Glo, Promega, Madison, Wis.) as described by the manufacturer. Luciferase activity was then quantified by measuring luminescence using an EnVision Multilabel Plate Readers (PerkinElmer, Waltham, Mass.). • 6. The percent inhibition for each compound was calculated by quantifying the level of luciferase expression in cells infected in the presence of each compound as a percentage of that observed for cells infected in the absence of compound and subtracting such a determined value from 100. • 7. An EC50 provides a method for comparing the antiviral potency of the compounds of this disclosure. The effective concentration for fifty percent inhibition (EC50) was calculated with the Microsoft Excel Xlfit curve fitting software. For each compound, curves were generated from percent inhibition calculated at 10 different concentrations by using a four paramenter logistic model (model 205). Table 1 is the key for the data in Table 2.
# [1] = read-out: EC50 Group from Table 1
SMILES,EC50 [1] [nM],EC50 [nM]
CC(C)(C)C1CCC(C(=O)N2CCN(C(=O)C(=O)c3c[nH]c4c(-n5ccnn5)ncc(F)c34)CC2)CC1 (stereo not drawn) [Compound 2009],> 500,–
CN(C)[C@H](C(=O)N1CCN(C(=O)C(=O)c2c[nH]c3c(-n4ccnn4)ncc(F)c23)CC1)c1ccccc1 [Compound 2037],> 500,–
COCCOCC(=O)N1CCN(C(=O)C(=O)c2c[nH]c3c(-n4ccnn4)ncc(F)c23)CC1 [Compound 2047],> 500,–
O=C(C(=O)N1CCN(C(=O)C2CCC(O)CC2)CC1)c1c[nH]c2c(-n3ccnn3)ncc(F)c12 (stereo not drawn) [Compound 2018],< 500,–
COCC(=O)N1CCN(C(=O)C(=O)c2c[nH]c3c(-n4cnc(C)n4)ncc(OC)c23)CC1 [Compound 2048],< 500,–
"COc1cnc(-n2ccnn2)c2[nH]cc(C(=O)C(=O)N3CCN(C(=O)C4CCCCC4)CC3)c12 [Compound 1002, 1-(4-(cyclohexanecarbonyl)piperazin-1-yl)-2-(4-methoxy-7-(1H-1,2,3-triazol-1-yl)-1H-pyrrolo[2,3-c]pyridin-3-yl)ethane-1,2-dione]",< 500,–
N[C@H]1CCCC[C@@H]1C(=O)N1CCN(C(=O)C(=O)c2c[nH]c3c(-n4ccnn4)ncc(F)c23)CC1 [Compound 2006],> 500,–
CN(C)[C@@H](C(=O)N1CCN(C(=O)C(=O)c2c[nH]c3c(-n4ccnn4)ncc(F)c23)CC1)c1ccccc1 [Compound 2036],> 500,–
CC(C)(C)OC(=O)N[C@H](C(=O)N1CCN(C(=O)C(=O)c2c[nH]c3c(-n4ccnn4)ncc(F)c23)CC1)c1ccccc1 [Compound 2031],> 500,–
CC(C)=C[C@@H]1[C@@H](C(=O)N2CCN(C(=O)C(=O)c3c[nH]c4c(-n5ccnn5)ncc(F)c34)CC2)C1(C)C [Compound 2011],> 500,–
O=C(C(=O)N1CCN(C(=O)C2CC3CCC2C(O)C3)CC1)c1c[nH]c2c(-n3ccnn3)ncc(F)c12 (stereo not drawn) [Compound 2008],< 500,5.1
CC1CCCC(C(=O)N2CCN(C(=O)C(=O)c3c[nH]c4c(-n5ccnn5)ncc(F)c34)CC2)C1 (stereo not drawn) [Compound 2001],< 500,–
CC[C@@]12CC3C[C@@](O)(C1)C[C@](C(=O)N1CCN(C(=O)C(=O)c4c[nH]c5c(-n6ccnn6)ncc(F)c45)CC1)(C3)C2 [Compound 2027],< 500,–
"COc1cnc(-n2ccnn2)c2[nH]cc(C(=O)C(=O)N3CCN(C(=O)C4CCCCCC4)CC3)c12 [Compound 1004, 1-(4-(cycloheptanecarbonyl)piperazin-1-yl)-2-(4-methoxy-7-(1H-1,2,3-triazol-1-yl)-1H-pyrrolo[2,3-c]pyridin-3-yl)ethane-1,2-dione]",< 500,0.14
NC1(C(=O)N2CCN(C(=O)C(=O)c3c[nH]c4c(-n5ccnn5)ncc(F)c34)CC2)CCCC1 [Compound 2013],< 500,451
O=C(C(=O)N1CCN(C(=O)[C@H](O)c2ccccc2)CC1)c1c[nH]c2c(-n3ccnn3)ncc(F)c12 [Compound 2019],< 500,344
CC(C)C(=O)N1CCN(C(=O)C(=O)c2c[nH]c3c(-n4ccnn4)ncc(F)c23)CC1 [Compound 2039],< 500,–
COCCOCC(=O)N1CCN(C(=O)C(=O)c2c[nH]c3c(-n4cnc(C)n4)ncc(OC)c23)CC1 [Compound 2051],> 500,–
CCCCCC(=O)N1CCN(C(=O)C(=O)c2c[nH]c3c(-n4cnc(C)n4)ncc(OC)c23)CC1 [Compound 2040],< 500,–
O=C(C(=O)N1CCN(C(=O)C23CC4CC(CC(C4)C2)C3)CC1)c1c[nH]c2c(-n3ccnn3)ncc(F)c12 [Compound 2016],< 500,–
CC(C)(C)OC(=O)N1CCC(C(=O)N2CCN(C(=O)C(=O)c3c[nH]c4c(-n5ccnn5)ncc(F)c34)CC2)C1 (stereo not drawn) [Compound 2033],> 500,–
CC(C)(C)OC(=O)N[C@@H](C(=O)N1CCN(C(=O)C(=O)c2c[nH]c3c(-n4ccnn4)ncc(F)c23)CC1)c1ccccc1 [Compound 2026],> 500,–
O=C(C(=O)N1CCN(C(=O)C2CCCOC2)CC1)c1c[nH]c2c(-n3ccnn3)ncc(F)c12 (stereo not drawn) [Compound 2024],< 500,–
O=C(C(=O)N1CCN(C(=O)[C@@H](O)c2ccccc2)CC1)c1c[nH]c2c(-n3ccnn3)ncc(F)c12 [Compound 2023],< 500,–
C[C@]12C[C@]3(C)C[C@](N)(C1)C[C@](C(=O)N1CCN(C(=O)C(=O)c4c[nH]c5c(-n6ccnn6)ncc(F)c45)CC1)(C2)C3 [Compound 2032],> 500,–
COc1cnc(-n2ccnn2)c2[nH]cc(C(=O)C(=O)N3CCN(C(=O)[C@]45C[C@H]6C[C@H](C[C@H](C6)C4)C5)CC3)c12 [Compound 1003],< 500,–

SMILES,EC50 [1] [nM],EC50 [nM]
O=C(C(=O)N1CCN(C(=O)C2CCC(F)(F)CC2)CC1)c1c[nH]c2c(-n3ccnn3)ncc(F)c12 [Compound 2022],< 500,–
O=C(C(=O)N1CCN(C(=O)C2CCOC2)CC1)c1c[nH]c2c(-n3ccnn3)ncc(F)c12 (stereo not drawn) [Compound 2015],< 500,–
C[C@]1(C(=O)N2CCN(C(=O)C(=O)c3c[nH]c4c(-n5ccnn5)ncc(F)c34)CC2)CCCN1 [Compound 2007],> 500,–
O=C(C(=O)N1CCN(C(=O)C2CC2)CC1)c1c[nH]c2c(-n3ccnn3)ncc(F)c12 [Compound 2038],< 500,–
CN1CCC[C@H]1C(=O)N1CCN(C(=O)C(=O)c2c[nH]c3c(-n4ccnn4)ncc(F)c23)CC1 [Compound 2030],> 500,–
O=C(C(=O)N1CCN(C(=O)C2CCOCC2)CC1)c1c[nH]c2c(-n3ccnn3)ncc(F)c12 [Compound 2014],< 500,12.5
CCCCCC(=O)N1CCN(C(=O)C(=O)c2c[nH]c3c(-n4ccnn4)ncc(F)c23)CC1 [Compound 2042],< 500,–
CCC(=O)N1CCN(C(=O)C(=O)c2c[nH]c3c(-n4cnc(C)n4)ncc(OC)c23)CC1 [Compound 2050],< 500,10.4
O=C(C(=O)N1CCN(C(=O)C2CCCCC2)CC1)c1c[nH]c2c(-n3ccnn3)ncc(F)c12 [Compound 2017],< 500,0.11
O=C(C(=O)N1CCN(C(=O)C2C[C@H]3C[C@@H]2CCC3O)CC1)c1c[nH]c2c(-n3ccnn3)ncc(F)c12 (stereo partly drawn) [Compound 2010],< 500,–
O=C(C(=O)N1CCN(C(=O)CCC2CCCC2)CC1)c1c[nH]c2c(-n3ccnn3)ncc(F)c12 [Compound 2043],< 500,–
CN1CCCCC1C(=O)N1CCN(C(=O)C(=O)c2c[nH]c3c(-n4ccnn4)ncc(F)c23)CC1 (stereo not drawn) [Compound 2029],> 500,–
CC(C)(C)OC(=O)N1CCCC(C(=O)N2CCN(C(=O)C(=O)c3c[nH]c4c(-n5ccnn5)ncc(F)c34)CC2)C1 (stereo not drawn) [Compound 2034],> 500,–
COc1cnc(-n2cnc(C)n2)c2[nH]cc(C(=O)C(=O)N3CCN(C(=O)CN(C)C)CC3)c12 [Compound 2049],> 500,–
O=C(C(=O)N1CCN(C(=O)C2CCCCCC2)CC1)c1c[nH]c2c(-n3ccnn3)ncc(F)c12 [Compound 2005],< 500,0.36
COc1cnc(-n2cnc(C)n2)c2[nH]cc(C(=O)C(=O)N3CCN(C(=O)CCC4CCCC4)CC3)c12 [Compound 2041],< 500,–
COCC(=O)N1CCN(C(=O)C(=O)c2c[nH]c3c(-n4ccnn4)ncc(F)c23)CC1 [Compound 2044],< 500,–
CCC(=O)N1CCN(C(=O)C(=O)c2c[nH]c3c(-n4ccnn4)ncc(F)c23)CC1 [Compound 2046],< 500,6.88
O=C(C(=O)N1CCN(C(=O)C2CCCO2)CC1)c1c[nH]c2c(-n3ccnn3)ncc(F)c12 (stereo not drawn) [Compound 2002],< 500,–
C[C@H]1CC[C@H](C(=O)N2CCN(C(=O)C(=O)c3c[nH]c4c(-n5ccnn5)ncc(F)c34)CC2)CC1 [Compound 2012],< 500,–
O=C(C(=O)N1CCN(C(=O)C23CC4CC(CC2C4)C3)CC1)c1c[nH]c2c(-n3ccnn3)ncc(F)c12 [Compound 2004],< 500,1.15
CN(C)CC(=O)N1CCN(C(=O)C(=O)c2c[nH]c3c(-n4ccnn4)ncc(F)c23)CC1 [Compound 2045],> 500,–
CN1CCC(C(=O)N2CCN(C(=O)C(=O)c3c[nH]c4c(-n5ccnn5)ncc(F)c34)CC2)CC1 [Compound 2020],> 500,–
CC1CCCCC1C(=O)N1CCN(C(=O)C(=O)c2c[nH]c3c(-n4ccnn4)ncc(F)c23)CC1 (stereo not drawn) [Compound 2003],< 500,–
CC(C)(C)OC(=O)N1CCC(C(=O)N2CCN(C(=O)C(=O)c3c[nH]c4c(-n5ccnn5)ncc(F)c34)CC2)CC1 [Compound 2035],> 500,–
O=CN1CCCC(C(=O)N2CCN(C(=O)C(=O)c3c[nH]c4c(-n5ccnn5)ncc(F)c34)CC2)C1 (stereo not drawn) [Compound 2028],< 500,25.5
